By pKi is commonly meant −log10 of the Ki, conventionally taken in molar units.

The text below walks through data of patent US8685967B2, “Substituted triazolopyridines and analogs thereof” (Merck Sharp & Dohme Corp., priority 2009, dated 2014).

Each structure is given as a SMILES string. pKi: −log10 of the molar value. Some results are limits rather than exact numbers.

The target of this assay is T1, Human recombinant PDE10A1 (Homo sapiens, UniProt Q9Y233).
T1 construct: purchased BPS Bioscience, Inc
T1 sequence (Q9Y233 1-779 isoform Q9Y233-1): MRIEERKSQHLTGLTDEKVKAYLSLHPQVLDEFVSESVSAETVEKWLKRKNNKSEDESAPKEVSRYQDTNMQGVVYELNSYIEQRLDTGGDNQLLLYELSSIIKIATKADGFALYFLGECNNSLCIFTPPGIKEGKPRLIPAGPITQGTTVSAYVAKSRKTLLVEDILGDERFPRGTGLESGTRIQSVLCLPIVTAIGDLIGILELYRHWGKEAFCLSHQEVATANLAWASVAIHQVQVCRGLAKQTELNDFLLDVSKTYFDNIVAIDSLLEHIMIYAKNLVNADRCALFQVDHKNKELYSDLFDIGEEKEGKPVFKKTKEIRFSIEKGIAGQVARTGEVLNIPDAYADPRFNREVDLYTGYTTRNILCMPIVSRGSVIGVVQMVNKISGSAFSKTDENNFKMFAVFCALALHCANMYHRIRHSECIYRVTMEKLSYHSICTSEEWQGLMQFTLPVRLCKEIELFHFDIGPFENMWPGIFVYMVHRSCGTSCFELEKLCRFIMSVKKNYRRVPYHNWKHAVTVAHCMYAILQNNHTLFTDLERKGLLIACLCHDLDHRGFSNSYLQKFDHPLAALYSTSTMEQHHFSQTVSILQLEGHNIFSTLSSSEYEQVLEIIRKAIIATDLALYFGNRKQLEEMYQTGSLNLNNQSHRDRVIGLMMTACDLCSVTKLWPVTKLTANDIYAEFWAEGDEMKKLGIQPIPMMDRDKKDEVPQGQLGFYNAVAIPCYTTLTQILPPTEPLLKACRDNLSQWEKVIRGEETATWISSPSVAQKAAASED
Description: In Vitro PDE10 Assay (scintillation proximity assay, [3H]cAMP). Format: biochemical. To be noted: PDE10A1 0.02 nM, 10 nM [3H]cAMP, 30 minutes at room temperature; Ki by Cheng and Prusoff. How it is done: PDE10A1 activity was measured in white opaque 384-well Opti-Plates (Perkin Elmer Life Sciences) using a scintillation proximity assay (GE Healthcare). Human recombinant PDE10A1 was purchased from BPS Bioscience, Inc. The reaction mixture contained PDE10A1 (0.02 nM), 10 nM [^3H]cAMP ([5′,8-^3H]Adenosine 3′,5′-cyclic phosphate, ammonium salt], Amersham) and various concentrations of compound in 50 mM Tris-HCl, pH 7.5, 8.3 mM MgCl2, […] and 0.2% bovine serum albumen in a total volume of 30 μl. The assay was initiated with the addition of substrate and was allowed to proceed for 30 minutes at room temperature before being stopped by the addition of 300 μg yttrium SPA PDE beads. The reaction mixtures were thoroughly mixed, and the beads were allowed to settle for 30 minutes. The plates were then counted in a TopCount scintillation counter. Under these conditions, less than 30% of the substrate was hydrolyzed in the absence of compound. Ki values were determined as described by Cheng and Prusoff (1973).
Background: Scintillation proximity formats need no separation of bound from free tracer.
As to `CC(C)(C)c1nnc2c(C(=O)NCCc3nc4ccc(F)cc4[nH]3)cccn12` [Example 1AA], the pKi was > 7.30.
In the case of `Cc1nnc2c(C(=O)NCCc3nc4cc(Cl)ccc4[nH]3)cccn12` [Example 1FF] it was > 7.30.
As for `CC(C)(C)c1nnc2c(C(=O)NCCCc3nc4ccccc4[nH]3)cc(-c3ccncc3)cn12` [Example 4E], the pKi is > 7.30.
In the case of `O=C(NCCc1nc2c(Cl)cc(C(F)(F)F)cc2[nH]1)c1cccn2c(C3CC3)nnc12` [Example 1VV] it was > 8.00.
Regarding `CC(C)c1nnc2c(C(=O)NCCc3nc4cc(Cl)c(F)cc4[nH]3)cccn12` [Example 1DDD], the pKi was > 7.30.
Take `Cn1c(CCNC(=O)c2cccn3c(C4CC4)nnc23)nc2cc(Cl)ccc21` [Example 7A]: the pKi is > 7.30.
The value for `Cn1c(CCNc2cccc3ccn4c(C(F)(F)F)nnc4c23)nc2ccccc21` [Example 8] was > 7.30; that for `COc1ccc2nc(CCNC(=O)c3cccn4c(C5CCC5)nnc34)[nH]c2c1` [Example 1SS] was > 8.00; that for `CC(C)c1nnc2c(C(=O)NCCc3nc4ccccc4[nH]3)cccn12` [Example 1GG] was > 7.30.
In the case of `COc1ccc2nc(CCNC(=O)c3cccn4c(C)nnc34)[nH]c2c1` [Example 1EE] it was > 8.00; in that of `CC(C)(C)c1nnc2c(C(=O)NCCc3nc4ccccc4[nH]3)cc(Br)cn12` [Example 1E], > 7.30; in that of `O=C(NCCc1nc2cc(Cl)ccc2[nH]1)c1cc(F)cn2c(C3CC3)nnc12` [Example 1FFF], > 7.30.
The value for `Cn1c(CCCNc2cccc3ccn4c(C(C)(C)C)nnc4c23)nc2ccccc21` [Example 8B] was > 7.30; that for `O=C(NCCc1nc2ccc(F)cc2[nH]1)c1cc(Br)cn2nc(C3CC3)nc12` [Example 2D] was > 7.30.
In the case of `CC(C)c1nnc2c(C(=O)NCCc3nc4cc(Cl)ccc4[nH]3)cccn12` [Example 1S], the negative-log Ki (pKi) is > 7.30.
In the case of `COc1ccc2nc(CCNC(=O)c3cccn4c(C(C)C)nnc34)[nH]c2c1` [Example 1XX] it was > 7.30.
In the case of `O=C(NCCc1nc2cc(Cl)ccc2[nH]1)c1cccn2c(C3CCC3)nnc12` [Example 1BBB], the negative logarithm of the Ki (pKi) was > 7.30.
For `O=C(NCCc1nc2ccc(F)cc2[nH]1)c1cccn2c(C3CC3)nnc12` [Example 1T], the negative-log Ki (pKi) was > 7.30.
The value for `O=C(NCCc1nc2cc(Cl)c(F)cc2[nH]1)c1cccn2c(C3CC3)nnc12` [Example 1ZZ] was > 7.30; that for `CC(C)(C)c1nnc2c(C(=O)NCCc3nc4cc(Cl)ccc4[nH]3)cccn12` [Example 1Z] was > 8.00.
The value for `O=C(NCCc1nc2ccccc2[nH]1)c1cccn2c(C3CC3)nnc12` [Example 1BB] was > 7.30; that for `CC(C)(C)c1nnc2c(C(=O)NCCc3nc4cc(Cl)ccc4s3)cc(Br)cn12` [Example 1M] was > 8.00; that for `CC(C)(C)c1nnc2c(C(=O)NCCCc3nc4ccccc4[nH]3)cc(-c3cccnc3)cn12` [Example 4F] was > 7.30.
On to `CC(C)(C)c1nnc2c(C(=O)NCCc3nc4ccccc4[nH]3)cc(F)cn12` [Example 1MM], for which the pKi was > 7.30.
Regarding `O=C(NCCc1nc2ccc(F)cc2[nH]1)c1cc(Br)cn2c(C3CC3)nnc12` [Example 1II], the pKi is > 7.30.
On to `CCc1nnc2c(C(=O)NCCc3nc4cc(Cl)ccc4[nH]3)cccn12` [Example 1DD], for which the negative-log Ki (pKi) was > 7.30.
In the case of `CC(C)(C)c1nnc2c(C(=O)NCCCc3nc4ccccc4[nH]3)cc(-c3cccc(O)c3)cn12` [Example 4D] it was > 8.00; in that of `O=C(NCCc1nc2cc(Cl)ccc2[nH]1)c1cccn2c(C(F)(F)F)nnc12` [Example 1B], > 7.30.
In the case of `CC(C)(C)c1nnc2c(C(=O)NCCCc3nc4ccccc4[nH]3)cc(Br)cn12` [Example 1Q] it was > 8.00.
The value for `O=C(NCCc1nc2ccccc2[nH]1)c1cccn2c(C(F)(F)F)nnc12` [Example 1A] was > 7.30; that for `Cc1nc2c(C(=O)NCCc3nc4cc(Cl)ccc4[nH]3)cccn2n1` [Example 2B] was > 8.00; that for `O=C(NCCCc1nc2ccccc2[nH]1)c1cccn2c(C3CC3)nnc12` [Example 1O] was > 8.00.
With `O=C(NCCc1nc2cc(Cl)ccc2[nH]1)c1cc(Br)cn2c(C3CC3)nnc12` [Example 1HH], the negative-log Ki (pKi) was > 7.30.
Take `CC(C)(C)c1nnc2c(C(=O)NCCc3nc4ccccc4[nH]3)cc(-c3ccncc3)cn12` [Example 4A]: the pKi was > 7.30.
In the case of `Cn1c(CCNC(=O)c2cccn3c(C4CC4)nnc23)nc2ccccc21` [Example 7D] it was > 7.30; in that of `O=C(NCCc1nc2ccccc2[nH]1)c1cc(F)cn2c(C3CC3)nnc12` [Example 1NN], > 7.30.
In the case of `COc1ccc2nc(CCNC(=O)c3cccn4c(C5CC5)nnc34)[nH]c2c1` [Example 1UU], the negative-log Ki (pKi) is > 7.30.
In the case of `O=C(NCCc1nc2cc(Cl)ccc2[nH]1)c1cccn2nc(Br)nc12` [Example 2G] it was > 7.30.
`Cn1c(CCCNc2cccc3ccn4c(C(F)(F)F)nnc4c23)nc2ccccc21` [Example 8C]: the negative logarithm of the Ki (pKi) is > 7.30.
In the case of `Cn1c(CCNC(=O)c2cccn3c(C(C)(C)C)nnc23)nc2cc(Cl)ccc21` [Example 7E] it was > 7.30.
As to `O=C(NCCc1nc2cc(Cl)ccc2[nH]1)c1cccn2c(C3CC3)nnc12` [Example 1R], the negative logarithm of the Ki (pKi) was > 7.30.
For `CC(C)(C)c1nnc2c(C(=O)NCCCc3nc4ccccc4[nH]3)cccn12` [Example 1P], the pKi was > 8.00.
The value for `CCn1c(CCNC(=O)c2cccn3c(C(C)C)nnc23)nc2ccccc21` [Example 7O] was > 8.00; that for `CC(C)(C)c1nnc2c(C(=O)NCCCc3nc4ccccc4[nH]3)cc(C#CCO)cn12` [Example 5B] was > 7.30; that for `O=C(NCCc1nc2ccccc2[nH]1)c1cc(Br)cn2nc(C3CC3)nc12` [Example 2F] was > 8.00.
In the case of `Cc1nnc2c(C(=O)NCCc3nc4cc(Cl)ccc4n3C)cccn12` [Example 7K] it was > 7.30; in that of `O=C(NCCc1nc2ccccc2[nH]1)c1cc(Br)cn2c(C3CC3)nnc12` [Example 1I], > 7.30.
The value for `O=C(NCCc1nc2cc(Cl)ccc2[nH]1)c1cccn2c(Br)nnc12` [Example 1LL] was > 7.30; that for `CC(C)(C)c1nnc2c(C(=O)NCCc3nc4ccccc4s3)cc(Br)cn12` [Example 1N] was > 8.00.
